The test system of the experiment is S. cerevisiae Burl-1 ts mutant growth, BacTiter-Glo, 38.5C 24 h. Nature of the experiment: growth induction of Burl-1 ts yeast mutant, dose response, counter-screen for SUMOylation pathway inhibitor project, whole organism, S. cerevisiae, luminescence (AID 463199). In general terms: A counterscreen serves to expose hits that act by an unwanted route or on another target.

What is called AC50 is the midpoint of the concentration-response curve, whichever way the signal moves.

Calls of active or inactive are those of the source.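 How the source made its calls: active means AC50, the dose giving half-maximal effect, exceeds a fixed cutoff for a compound that rescues yeast growth under heat; inactive means the rest, inconclusive results apart.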

For `CN(C)c1ccc(/C=C/c2cccc[n+]2[O-])cc1`, the AC50 was > 42 µM (inactive).

For the compound `Cc1ccc(S(=O)(=O)N2c3ccc(S(N)(=O)=O)cc3CC2C)cc1` (stereo not drawn), the AC50 is > 42 µM (inactive). To `O=Cc1cn(Cc2ccccc2F)c2ccccc12` belongs > 42 µM (inactive); to `CC(=O)Nc1cccc2c1C(=O)N(c1ccccc1C)C2=O`, > 42 µM (inactive).

As for `CNC(=O)NNC(=O)c1csc(-c2ccc(C(F)(F)F)cc2Cl)n1`, the AC50 was > 42 µM (inactive). In the case of `O=C1CN(C(=O)c2c(F)cccc2F)C(c2ccc(F)cc2)c2cc(F)ccc2N1` (stereo not drawn), the AC50 was > 42 µM (inactive).

Turning to `CN(C)CCNC(=O)c1scc2c1CCCC2`, the AC50 is > 42 µM (inactive). On to `Nc1cc(=O)[nH]c(=O)n1CCc1ccccc1`, for which the AC50 was > 42 µM (inactive). To `NC(=O)c1cccc2cc3ccccc3cc12` belongs > 42 µM (inactive); to `CC(=O)Nc1ccc(S(=O)(=O)Nc2cccc(-c3ccc4nncn4n3)c2)cc1`, > 42 µM (inactive). To `Cc1nc2ccccc2n(CC(=O)Nc2cc(Cl)cc(Cl)c2)c1=O` belongs > 42 µM (inactive). To `CC(C)(C)C(=O)NC1CCN(CC(=O)Nc2ccc3c(c2)OCO3)CC1` belongs > 42 µM (inactive); to `N#CCCN(C(=O)COC(=O)c1ccc(S(=O)(=O)Nc2ccccc2)cc1)c1ccccc1`, > 42 µM (inactive). Consider `O=C(CSc1nnc(-c2ccc(Br)cc2)o1)Nc1cccc2ccccc12`, for which the AC50 is > 42 µM (inactive). The value for `CCN1C(=NCCCCO)N[C@@H](c2cccc(C(F)(F)F)c2)C(C(=O)OC)=C1C` was > 42 µM (inactive); that for `COCCN1C=C(C(=O)OC)C(c2cc3c(cc2Br)OCO3)C(C(=O)OC)=C1` was > 42 µM (inactive); that for `CC(C)(C)c1ccc(CN(Cc2ccccc2)C(c2ccccn2)c2nnnn2C(C)(C)C)cc1` (stereo not drawn) was > 42 µM (inactive).

With `O=C(NC(=S)Nc1ccccc1N1CCCC1)c1ccc([N+](=O)[O-])cc1`, the AC50 is > 42 µM (inactive). To `NC(=O)c1nsc(C(=O)N(Cc2ccc(F)cc2)C(C(=O)NC2CCCC2)c2ccco2)c1N` (stereo not drawn) belongs > 42 µM (inactive).

Take `COc1cc(C(=O)Oc2cccnc2)cc(OC)c1OC`: the AC50 is > 42 µM (inactive). As to `CCC(=O)c1c[nH]c(C(=O)NCCCn2ccnc2)c1`, the AC50 was > 42 µM (inactive).

`CC(C)(C)c1ccc(C(=O)NCCC(=O)N2CCN(c3ncccn3)CC2)cc1`: the AC50 was > 42 µM (inactive). To `COc1cc2c(=O)n(CCC(=O)NCC3CCCO3)c(=O)n(CC(=O)Nc3ccccc3C)c2cc1OC` (stereo not drawn) belongs > 42 µM (inactive). The value for `COc1cc2c(=O)n(-c3ccc(C)cc3)c(=O)n(CC(=O)c3ccc4c(c3)OCO4)c2cc1OC` was > 42 µM (inactive); that for `Cc1cc(C)c(NC(=O)CNC(=O)c2cc([N+](=O)[O-])ccc2N2CCOCC2)c(C)c1` was > 42 µM (inactive).

As to `O=C(Nc1ccc2c(c1)CCCN2C(=O)c1cccs1)c1cccc(F)c1`, the AC50 is > 42 µM (inactive). The value for `CCN1CCCC(NC(=O)c2scc3c2CCCC3)C1` (stereo not drawn) was > 42 µM (inactive); that for `CCn1c(SCC(=O)NC2CCCCC2)nnc1C(C)NC(=O)c1ccccc1F` (stereo not drawn) was > 42 µM (inactive). To `CCOc1ccc(C)cc1S(=O)(=O)n1nc(C)cc1C` belongs > 42 µM (inactive). Regarding `CCOC(=O)c1ccc(NC(=O)CC2Sc3ncnn3C2=O)cc1` (stereo not drawn), the AC50 is > 42 µM (inactive). Take `NC1=NC2(CCCC2)N=C(Nc2ccccc2)N1`: the AC50 is > 42 µM (inactive).

Regarding `Cc1cccc(OCCN2CSC(=S)N(C)C2)c1`, the AC50 is 31.6 µM. To `COC(=O)c1ccc(Cl)c(NC(=O)CN(c2ccc(OC)c(OC)c2)S(C)(=O)=O)c1` belongs > 42 µM (inactive).

`COc1ccc(N2CCN(C(=O)CNC(=O)Cc3ccc(Cl)cc3)CC2)cc1`: the AC50 is > 42 µM (inactive). `Cc1ccc(S(=O)(=O)NC2CCCCCCC2)cc1`: the AC50 is > 42 µM (inactive).

As to `COc1ccc(C2C(C(C)=O)=C(O)C(=O)N2CCO)c(OC)c1` (stereo not drawn), the AC50 was > 42 µM (inactive). Regarding `Cc1ccc(NC(=S)N2CCN(Cc3ccc4c(c3)OCO4)CC2)c(C)c1`, the AC50 was > 42 µM (inactive).

With `COc1cc([C@@H]2CC=C(C(=O)O)[C@H](c3ccccc3F)N2S(=O)(=O)c2ccc(C)cc2)cc(OC)c1OC`, the AC50 was > 42 µM (inactive). The value for `CCN(CC)C(=O)CSC(Nc1cccc(F)c1)=C(C#N)C#N` was > 42 µM (inactive). To `Cc1ccc(-n2nnnc2SCC#N)cc1` belongs > 42 µM (inactive); to `Cc1nc2ccc(NC(=O)c3ccco3)cc2s1`, > 42 µM (inactive); to `CCOc1ccc(CCN2CN(C3CCCCC3)CNC2=S)cc1OCC`, > 42 µM (inactive).

Take `O=c1oc2cc(S(=O)(=O)NCCCO)ccc2c2ccc(S(=O)(=O)NCCCO)cc12`: the AC50 was > 42 µM (inactive). The value for `CCOC(=O)c1[nH]c2ccc(F)cc2c1NC(=O)CCN1CCOCC1` was > 42 µM (inactive); that for `N#C/C(=N\Nc1cccc(F)c1)C(=N)N1CCCCCC1` was > 42 µM (inactive). Turning to `Cc1ccc(NC(=O)CSCC(=O)Nc2ccccc2N2CCCC2)cc1`, the AC50 was > 42 µM (inactive).

For the compound `Cc1ccc(-c2nc(CS(=O)(=O)CC(=O)NC3CCCCC3C)c(C)o2)cc1` (stereo not drawn), the AC50 is > 42 µM (inactive).

As to `Nc1ccc(Oc2ccccc2-c2ccccc2)cc1`, the AC50 was > 42 µM (inactive). To `CC(=O)N(C(C)=O)C1=C(C#N)C2(CCCCC2)Cc2ccccc21` belongs > 42 µM (inactive). To `N#C/C(=C\c1c(N(Cc2ccccc2)Cc2ccccc2)nc2ccccn2c1=O)C(N)=O` belongs > 42 µM (inactive); to `CN(C)C(CNC(=O)CNC(=O)c1ccc(Br)cc1)c1ccccc1` (stereo not drawn), > 42 µM (inactive); to `COc1ccc(C(=O)N2CCN(c3ccc(NC(=O)c4cccnc4)cc3)CC2)cc1`, > 42 µM (inactive). `COc1ccc(NC(=O)CN2C(=O)c3ccccc3S2(=O)=O)cc1OC`: the AC50 is > 42 µM (inactive).

Turning to `CCN1CSC(=S)N(Cc2ccc(OC)cc2)C1`, the AC50 is 7.78 µM. In the case of `CC(C)COc1ccc(C(=O)Nc2ccc([N+](=O)[O-])cc2)cc1`, the AC50 was > 42 µM (inactive). To `CC(C)(C)c1ccc(C(=O)COC(=O)CN2C(=O)NC3(CCCC3)C2=O)cc1` belongs > 42 µM (inactive). As for `CCOC(=O)c1sc(NC(=O)CSc2n[nH]c(-c3ccccc3)n2)c(C#N)c1C`, the AC50 was > 42 µM (inactive).

`CCc1nnc2n1N=C(c1ccc(Cl)cc1)CS2`: the AC50 was > 42 µM (inactive). To `O=C(CSc1nnnn1C1CC2CCC1C2)Nc1ccnc2ccccc12` (stereo not drawn) belongs > 42 µM (inactive); to `Cc1cccc(/C=N/NC(=O)Cc2cccs2)c1`, > 42 µM (inactive). The value for `Cc1nnc(NC(=O)c2ccc(-c3cccc(C(F)(F)F)c3)o2)s1` was > 42 µM (inactive). For the compound `CCN(CCn1cccn1)C(=O)C1CCC(=O)N(CCc2cccc(F)c2)C1` (stereo not drawn), the AC50 was > 42 µM (inactive). As to `CCOC(=O)c1ccc(NC(=O)NCc2ccncc2)cc1`, the AC50 is > 42 µM (inactive).

Take `CCOC(=O)N1CCN(S(=O)(=O)c2ccc(Br)s2)CC1`: the AC50 is > 42 µM (inactive).

Consider `COC(=O)[C@@H]1C[C@@H]2CC[C@@H](O)C[C@@H]2N1Cc1ccc(N2CCN(C)CC2)cc1`, for which the AC50 is > 42 µM (inactive). Regarding `COc1ccc(S(=O)(=O)n2nc(-c3ccc(Cl)cc3)cc2N)cc1OC`, the AC50 is > 42 µM (inactive). Take `Nc1cc[n+](CC(=O)Nc2ccccc2)cc1`: the AC50 was > 42 µM (inactive). The value for `CCOc1ccccc1/C=N\Nc1cnn(Cc2ccccc2)c(=O)c1Cl` was > 42 µM (inactive); that for `CC1CCC(C(C)C)C(OC(=O)COC(=O)c2cccn2C)C1` (stereo not drawn) was > 42 µM (inactive). In the case of `O=C(CCCn1cnc([N+](=O)[O-])n1)Nc1cccc2ccccc12`, the AC50 is > 42 µM (inactive). The value for `CCc1nnc(NC(=O)CSc2ccc(-c3ccc(-n4cccn4)cc3)nn2)s1` was > 42 µM (inactive); that for `Cc1sc(NC(=O)CSC2=NCCS2)nc1-c1ccccc1` was > 42 µM (inactive); that for `COc1ccc(OC)c(CCNC(=O)c2ccc3c(c2)N(Cc2ccc(F)cc2)CCS3)c1` was > 42 µM (inactive). To `CCOC(=O)CNC(=O)c1cccnc1` belongs > 42 µM (inactive); to `COc1cc(C(=O)Nc2sc3c(c2C(=O)O)CCC(C)C3)cc(OC)c1OC` (stereo not drawn), > 42 µM (inactive); to `CC1=Nc2ccc(C)cc2N(Cc2ccccc2)C(=O)C1`, > 42 µM (inactive). To `CCCn1c(N)cc(=O)n(CCC)c1=O` belongs > 42 µM (inactive); to `c1ccc2c(C[C@@H]3CNCCN3CCCCC3CCCCC3)cccc2c1`, > 42 µM (inactive). Regarding `COC(=O)c1cccc(NC(=O)CN(c2ccc3c(c2)OCO3)S(C)(=O)=O)c1C`, the AC50 is > 42 µM (inactive). To `Cc1ccc(C)c(NC(NC(=O)c2ccccn2)C(Cl)(Cl)Cl)c1` (stereo not drawn) belongs > 42 µM (inactive).

Take `COCCn1c(=O)[nH]c(=O)c2cc(C(=O)c3cc(Cl)ccc3O)cnc21`: the AC50 is > 42 µM (inactive). To `CC1CCN(CCNC(=O)C2CCCN(S(=O)(=O)c3cccc4nsnc34)C2)CC1` (stereo not drawn) belongs > 42 µM (inactive); to `COc1ccc(-n2c(C)cc(C(=O)CN3C(=O)NC4(CCCc5sccc54)C3=O)c2C)cc1` (stereo not drawn), > 42 µM (inactive); to `CCOC(=O)c1cccc(NC(=O)C2CCCN(S(=O)(=O)c3c(C)n[nH]c3C)C2)c1` (stereo not drawn), > 42 µM (inactive). `CCCCN(C)C(=O)CCC(=O)Nc1ccc2nc(N3CCN(C)CC3)cc(C)c2c1`: the AC50 was > 42 µM (inactive). The value for `Cc1ccc(Oc2ccccc2NC(=O)C2=COCCO2)cc1` was > 42 µM (inactive); that for `COc1ccc(NC2CC(=O)N(C(C)C)C2=O)cc1` (stereo not drawn) was > 42 µM (inactive); that for `COc1ccc(Cl)cc1NC(=O)C1CCCN(c2cc(C)nc3ncnn23)C1` (stereo not drawn) was > 42 µM (inactive).

(Values after PubChem BioAssay AID463199 (Broad Institute, 2010).)
